From patent publication US20230340530A1, “Methods of Protecting RNA” (Pfizer Inc., priority 2020, published 2023) come the findings set out here.

pEC50: −log10 of the molar value.

For this assay, the target named is RNA samples (Chi18 or HCV IRES). Briefly: Droplet Digital Polymerase Chain Reaction (ddPCR) assay of RNA protection. Particulars: 50 mM Tris buffer pH 11.4, 16 hrs at 30° C. for Chi18 or 42° C. for HCV; table does not say which RNA; 600 µM to 0.018 µM compound, 2% DMSO; read-out: EC50 Values Obtained from the ddPCR Assay. The assay is classed as biochemical. As to the method:
The ddPCR assays measured RNA integrity by converting intact RNA to cDNA by reverse transcription, then performing digital PCR in thousands of nanoliter-sized droplets for each sample. PCR was performed within each droplet, which allowed for more sensitive detection of subtle changes in RNA concentration compared to traditional PCR or qPCR. Additionally, primers/probes specific to the 5′ end of the RNA/cDNA transcript(s) were used to assess fragment integrity, i.e. degraded RNA had fewer 5′ positive droplets. The BioRad QX200 Droplet Digital PCR System was used for the ddPCR workflow.
RNA samples (Chi18 or HCV IRES) were diluted to 100 fg/µL in 50 mM Tris buffer pH 11.4. Boron compounds were tested in a dose-response format to determine EC50. A compound dilution plate that contained a 30 mM top concentration of compound in DMSO was serially (half-log) diluted 10 times. A quantity of 0.12 µL of this compound dilution plate was spotted into a 96-well PCR plate (Thermo). Sample RNAs were added (6 µL) and incubated with test compounds as described below. Final compound concentrations ranged from 600 µM to 0.018 µM in 2% DMSO.
For the degradation reaction, treated RNAs were incubated for 16 hrs at 30° C. for Chi18 samples or 42° C. for HCV samples. Upon completion of the degradation reaction, cDNA was made and ddPCR run for each sample (96 well plates). Positive 5′ droplet values were divided by the total accepted droplet values for each sample and a ratio value generated for each sample.
Data was imported into a database where percent (%) protection and compound EC50 were calculated and curated. […] EC50 was determined by using a four parameter logistic equation: Y=A+((B-A)/(1+(C/X)D)); where Y is percent protection, X is compound concentration, A and B are minimum and maximum asymptotes, respectively, C is EC50, and D is Hill slope.
`CC(C)(C)OC(=O)NCCC[B-](F)(F)F` [PF-06934734, {3-[(tert-butoxycarbonyl)amino]propyl}(trifluorido)borate(1-)]: the pEC50 (usually −log10 of the EC50, conventionally taken in molar units) is 3.52.
The value for `Cc1cc(C(=O)O)ccc1B1OC(C)(C)C(C)(C)O1` [PF-05417781, 3-methyl-4-(4,4,5,5-tetramethyl-1,3,2-dioxaborolan-2-yl)benzoic acid] was 3.33.
For the compound `C[C@H]1c2ccc(NCC(=O)Nc3ccc4c(c3)B(O)OC4)c(O)c2C(=O)C2=C(O)[C@]3(O)C(=O)C(C(N)=O)=C(O)[C@@H](N(C)C)[C@@H]3[C@@H](O)[C@@H]21` [PF-06968419, (4S,4aR,5S,5aR,6R,12aS)-4-(dimethylamino)-3,5,10,12,12a-pentahydroxy-9-({2-[(1-hydroxy-1,3-dihydro-2,1-benzoxaborol-6-yl)amino]-2-oxoethyl}amino)-6-methyl-1,11-dioxo-1,4,4a,5,5a,6,11,12a-octahydrotetr acene-2-carboxamide], the pEC50 was 4.12.
As for `C[C@H]1c2ccc(NC(=O)c3ccc4c(c3)B(O)OC4)c(O)c2C(=O)C2=C(O)[C@]3(O)C(=O)C(C(N)=O)=C(O)[C@@H](N(C)C)[C@@H]3[C@@H](O)[C@@H]21` [PF-06968126, N-[(5R,5aR6S,6aR,7S,10aS)-9-carbamoyl-7-(dimethylamino)-1,6,8,10a,11-pentahydroxy-5-methyl-10,12-dioxo-5,5a,6,6a,7,10,10a,12-octahydrotetracen-2-yl]-1-hydroxy-1,3-dihydro-2,1-benzoxaborole-6-carboxamide], the figure is 3.41; as for `C[C@H]1c2ccc(NC(=O)CNc3ccc4c(c3)B(O)OC4(C)C)c(O)c2C(=O)C2=C(O)[C@]3(O)C(=O)C(C(N)=O)=C(O)[C@@H](N(C)C)[C@@H]3[C@@H](O)[C@@H]21` [PF-06968306, (4S,4aR,5S,5aR,6R,12aS)-4-(dimethylamino)-3,5,10,12,12a-pentahydroxy-9-{[N-(1-hydroxy-3,3-dimethyl-1,3-dihydro-2,1-benzoxaborol-6-yl)glycyl]amino}-6-methyl-1,11-dioxo-1,4,4a,5,5a,6,11,12a-octahydrotet racene-2-carboxamide], 3.63; as for `C[C@H]1c2ccc(NCCC(=O)Nc3ccc4c(c3)B(O)OCC4)c(O)c2C(=O)C2=C(O)[C@]3(O)C(=O)C(C(N)=O)=C(O)[C@@H](N(C)C)[C@@H]3[C@@H](O)[C@@H]21` [PF-06968237, (4S,4aR,5S,5aR,6R,12aS)-4-(dimethylamino)-3,5,10,12,12a-pentahydroxy-9-({3-[(1-hydroxy-3,4-dihydro-1H-2,1-benzoxaborinin-7-yl)amino]-3-oxopropyl}amino)-6-methyl-1,11-dioxo-1,4,4a,5,5a,6,11,12a-octahyd rotetracene-2-carboxamide], 3.78.
With `O=C(OB(c1cccc(F)c1)c1cccc(F)c1)c1ncccc1O` [PF-06956417], the pEC50 is 3.37.
Consider `C[C@H]1c2ccc(NC(=O)CCC(=O)Nc3ccc4c(c3)B(O)OC4)c(O)c2C(=O)C2=C(O)[C@]3(O)C(=O)C(C(N)=O)=C(O)[C@@H](N(C)C)[C@@H]3[C@@H](O)[C@@H]21` [PF-06968256, N-1-[(5R,5aR,6S,6aR,7S,10aS)-9-carbamoyl-7-(dimethylamino)-1,6,8,10a,11-pentahydroxy-5-methyl-10,12-dioxo-5,5a,6,6a,7,10,10a,12-octahydrotetracen-2-yl]-N~4~-(1-hydroxy-1,3-dihydro-2,1-benzoxaborol-6-yl)butanediamide], for which the pEC50 was 4.12.
Take `OB(c1ccc(Cl)cc1)c1ccc(Cl)cc1` [PF-05690484, bis(4-chlorophenyl)borinic acid]: the pEC50 was 3.45.
As for `C[C@H]1c2c(NC(=O)c3ccc4c(c3)B(O)OC4)ccc(O)c2C(=O)C2=C(O)[C@]3(O)C(=O)C(C(N)=O)=C(O)[C@@H](N(C)C)[C@@H]3[C@@H](O)[C@@H]21` [PF-06968384, N-[(6aS,10S,10aR,11S,11aR, 12R)-8-carbamoyl-10-(dimethylamino)-4,6,6a,9,11-pentahydroxy-12-methyl-5,7-dioxo-5,6a,7,10,10a,11,11a,12-octahydrotetracen-1-yl]-1-hydroxy-1,3-dihydro-2,1-benzoxaborole-6-car boxamide], the figure is 3.55; as for `O=C(O)C[C@@H]1OB(O)c2cccc(B(O)O)c21` [PF-06961361, [(3S)-4-borono-1-hydroxy-1,3-dihydro-2,1-benzoxaborol-3-yl]acetic acid], 3.65.
The value for `CN1CCN(Cc2ccc(B(Oc3cccc4cccnc34)c3ccc(C#N)c(Cl)c3)cc2F)CC1` [PF-06956823, quinolin-8-yl (3-chloro-4-cyanophenyl){3-fluoro-4-[(4-methylpiperazin-1-yl)methyl]phenyl}borinate] was 3.76.
`C[C@H]1c2ccc(NC(=O)CCC(=O)NC[C@H]3CCB(O)O3)c(O)c2C(=O)C2=C(O)[C@]3(O)C(=O)C(C(N)=O)=C(O)[C@@H](N(C)C)[C@@H]3[C@@H](O)[C@@H]21` (racemic) [PF-06968488, N~1~-[(5RS,5aRS,6SR,6aRS,7S R,10aSR)-9-carbamoyl-7-(dimethylamino)-1,6,8,10a,11-pentahydroxy-5-methyl-10,12-dioxo-5,5a,6,6a,7,10,10a,12-octahydrotetracen-2-yl]-N~4~-{[(5RS)-2-hydroxy-1,2-oxaborolan-5-y I]methyl}butanediamide]: the negative logarithm of the EC50 (pEC50) was 3.72.
As for `BBBBBBBBBB1C(Cc2ccc(O)cc2)=C1Cc1ccc(O)cc1` [PF-01914444, 4,4′-{[1-(nonaboran-1-yl)-1H-borirene-2,3-diyl]bis(methylene)}diphenol], the figure is 3.31; as for `CN1CCN(Cc2cccc([B@@-]3(c4ccc(F)cc4)Oc4cccc5ccc[n+]3c45)c2)CC1` [PF-06956810, (4-fluorophenyl){3-[(4-methylpiperazin-1-yl)methyl]phenyl}(quinolin-8-olato-kappa-2-N,O)boron], 3.85; as for `O=C(OCc1cccc(B2OCc3cc(F)ccc32)c1)c1ccc2cccc(O)c2n1` [PF-06957137, [3-(5-fluoro-2,1-benzoxaborol-1 (3H)-yl)phenyl]methyl 8-hydroxyquinoline-2-carboxylate], 3.37.
As for `CN(C)c1cc(NC(=O)CCNC(=O)c2ccc3c(c2)COB3O)c(O)c2c1C[C@H]1C[C@H]3[C@H](N(C)C)C(O)=C(C(N)=O)C(=O)[C@@]3(O)C(O)=C1C2=O` [PF-06967772, N-(3-{[(5aR,6aS,7S,10aS)-9-carbamoyl-4,7-bis(dimethylamino)-1,8,10a,11-tetrahydroxy-10,12-dioxo-5,5a,6,6a,7,10,10a,12-octahydrotetracen-2-yl]amino}-3-oxopropyl)-1-hydroxy-1,3-dihydro-2,1-benzoxaborole-5-carboxamide], the figure is 3.54; as for `CN1CCN(Cc2ccc(B(Oc3cccc4cccnc34)c3ccc(C#N)c(Cl)c3)cc2)CC1` [PF-06956831, quinolin-8-yl (3-chloro-4-cyanophenyl){4-[(4-methylpiperazin-1-yl)methyl]phenyl}borinate], 3.62.
In the case of `C[C@H]1c2ccc(NC(=O)c3ccc4c(c3)B(O)OC4(C)C)c(O)c2C(=O)C2=C(O)[C@]3(O)C(=O)C(C(N)=O)=C(O)[C@@H](N(C)C)[C@@H]3[C@@H](O)[C@@H]21` [PF-06968101, N-[(5R,5aR,6S,6aR,7S,10aS)-9-carbamoyl-7-(dimethylamino)-1,6,8,10a,11-pentahydroxy-5-methyl-10,12-dioxo-5,5a,6,6a,7,10,10a,12-octahydrotetracen-2-yl]-1-hydroxy-3,3-dimethyl-1,3-dihydro-2,1-benzoxaborole-6-carboxamide], the negative logarithm of the EC50 (pEC50) is 3.79.
In the case of `CN1CCN(Cc2ccc([B@@-]3(c4ccc(C#N)cc4)Oc4cccc5ccc[n+]3c45)cc2Cl)CC1` [PF-06956838, {3-chloro-4-[(4-methylpiperazin-1-yl)methyl]phenyl}(4-cyanophenyl)(quinolin-8-olato-kappa-2-N,O)boron], the pEC50 is 3.68.
The value for “bis(acetato-kappaO)[1-cyclopropyl-6,7-difluoro-8-methyl-4-(oxo-kappaO)-1,4-dihydroquinoline-3-carboxylato-kappaO]boron [PF-04743686]” was 3.57; that for `C[C@H]1c2ccc(NCCC(=O)Nc3cc4c5c(c3)OCCOB5OC4)c(O)c2C(=O)C2=C(O)[C@]3(O)C(=O)C(C(N)=O)=C(O)[C@@H](N(C)C)[C@@H]3[C@@H](O)[C@@H]21` [PF-06968542, (4S,4aR,5S,5aR,6R,12aS)-9-({3-[(2,3-dihydro-7H-[1,2]oxaborolo[4,3,2-jk][2,5,1]benzodioxaborepin-9-yl)amino]-3-oxopropyl}amino)-4-(dimethylamino)-3,5,10,12,12a-pentahydroxy-6-methyl-1,11-dioxo-1,4,4a,5,5a,6,11,12a-octahydrotetracene-2-carboxamide] was 3.90.
